Laboratory results taken from ChEMBL document CHEMBL1201862, “PubChem BioAssay data set” (2004).
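Assay format: 96-well plates, 48-hour exposure. At the GI50, growth is halved.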 The source made the active and inactive calls. Cut-off read from the data, not from the text of the source: active = GI50 up to about 1.1 µM and inactive = higher.

Tests used:
Assay in all cases: inhibition of tumour cell growth, NCI panel, 48 h
ACHN = test system: ACHN
Hs-578T = test system: Hs-578T
MDA-MB-435 = test system: MDA-MB-435
MDA-N = test system: MDA-N
DLD-1 = test system: DLD-1
LXFL 529 = test system: LXFL 529
RXF 631 = test system: RXF 631
786-0 = test system: 786-0
BT-549 = test system: BT-549

SMILES	GI50 (ACHN)	GI50 (MDA-MB-435)	GI50 (DLD-1)	further results
CN(C)C(=O)NCCN1CCCCCc2ccccc21	> 100 µM (inactive)	53 µM (inactive)		GI50 (Hs-578T): > 100 µM (inactive); GI50 (MDA-N): > 100 µM (inactive)
CC(=O)Nc1ccc(C(=O)NN2C(=O)C(Cl)/C2=C/c2ccco2)cc1 (stereo unspecified)	> 100 µM (inactive)		> 100 µM (inactive)	GI50 (LXFL 529): > 100 µM (inactive)
O=C1C=CC(=O)c2c(Cl)ccc(O)c21			13.9 µM (inactive)	
Cc1cc(C(=O)NCCN(C)C)c2nc3ccccc3cc2c1			1.96 µM (inactive)	
ClCc1ccc2ccc3ccc(CCl)nc3c2n1			1.5 µM (inactive)	
C=CCCN1CCc2c([nH]c3ccccc23)C1C(=O)O (stereo unspecified)	> 100 µM (inactive)		> 100 µM (inactive)	GI50 (LXFL 529): > 100 µM (inactive); GI50 (RXF 631): > 100 µM (inactive)
COc1cc2c(ccc3c4cc(OC)c(OC)cc4c[n+](C)c23)cc1O [FAGARONINE]			67.5 µM (inactive)	
C=C1C(=O)OC2CC1CCC1(C)OC1CCC(C)=CCCC2(C)O (stereo unspecified)			1.81 µM (inactive)	
Cn1c2ccc([N+](=O)[O-])cc2c(=O)n1Cc1ccccc1F	53.3 µM (inactive)	74.3 µM (inactive)		GI50 (786-0): 49.5 µM (inactive); GI50 (BT-549): > 100 µM (inactive); GI50 (Hs-578T): 25.8 µM (inactive); GI50 (MDA-N): 27.4 µM (inactive)
CON(C)C(C#N)=C(C#N)C#N	> 10 µM (inactive)	> 10 µM (inactive)		GI50 (Hs-578T): > 10 µM (inactive); GI50 (MDA-N): > 10 µM (inactive)
CC1=C2C3OC(=O)C(C)C3CCC2(C)C=C/C1=N\c1ccccc1 (stereo unspecified)			> 100 µM (inactive)	
CCOC(=O)c1cc(Br)c(-c2cc(C)no2)[nH]1	28.8 µM (inactive)	14.3 µM (inactive)		GI50 (786-0): 43.7 µM (inactive); GI50 (BT-549): 31.2 µM (inactive); GI50 (MDA-N): 23.2 µM (inactive)
CC1NC(=O)C(C)C(c2ccccc2)N(N=O)C1c1ccccc1 (stereo unspecified)			72.1 µM (inactive)	
CN(CCO)Cc1ncccc1O	> 100 µM (inactive)	> 100 µM (inactive)		GI50 (BT-549): > 100 µM (inactive); GI50 (Hs-578T): > 100 µM (inactive)
O=C1C(Cl)N(c2ccccc2[N+](=O)[O-])C1c1c[nH]c2ccccc12 (stereo unspecified)				GI50 (LXFL 529): > 100 µM (inactive)
Cn1cc(-c2csc(-c3cn(C)c4ccccc34)n2)c2ccccc21	21.6 µM (inactive)	26.4 µM (inactive)		GI50 (786-0): 17.2 µM (inactive); GI50 (BT-549): 56.4 µM (inactive); GI50 (Hs-578T): > 100 µM (inactive); GI50 (MDA-N): 24.9 µM (inactive)
COc1ccc(CCn2cncn2)cc1	> 100 µM (inactive)		> 100 µM (inactive)	GI50 (LXFL 529): > 100 µM (inactive); GI50 (RXF 631): > 100 µM (inactive)
CC(=O)OCc1c(C)c2ccccc2n1C(C)=O	25.3 µM (inactive)			GI50 (786-0): > 100 µM (inactive); GI50 (RXF 631): 25.2 µM (inactive)
